Results: ChEMBL document CHEMBL4425081, “Design and Development of Microsomal Prostaglandin E2 Synthase-1 Inhibitors: Challenges and Future Directions” (J Med Chem, 2016)

Columns and labels:
[1] = biological target: T1, Arachidonate 5-lipoxygenase-activating protein (Homo sapiens, UniProt P20292); assay: Antagonist activity at FLAP in human PMNC assessed as inhibition of A23187-induced LTB4 biosynthesis pre-incubated for 2 mins followed by addition of A23187 measured after 5 mins by radioimmunoassay
T1 sequence (P20292 whole entry): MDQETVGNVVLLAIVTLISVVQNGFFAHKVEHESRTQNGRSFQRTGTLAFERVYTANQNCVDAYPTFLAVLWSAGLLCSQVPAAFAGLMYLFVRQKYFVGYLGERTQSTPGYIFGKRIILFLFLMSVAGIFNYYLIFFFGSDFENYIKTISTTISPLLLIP

[2] = biological target: T2, Prostaglandin G/H synthase 1 (Ovis aries, UniProt P05979); assay: Inhibition of ovine COX-1 assessed as 12-HHT formation preincubated for 5 mins followed by addition of arachidonic acid as substrate measured after 5 mins by HPLC analysis
T2 sequence (P05979 whole entry): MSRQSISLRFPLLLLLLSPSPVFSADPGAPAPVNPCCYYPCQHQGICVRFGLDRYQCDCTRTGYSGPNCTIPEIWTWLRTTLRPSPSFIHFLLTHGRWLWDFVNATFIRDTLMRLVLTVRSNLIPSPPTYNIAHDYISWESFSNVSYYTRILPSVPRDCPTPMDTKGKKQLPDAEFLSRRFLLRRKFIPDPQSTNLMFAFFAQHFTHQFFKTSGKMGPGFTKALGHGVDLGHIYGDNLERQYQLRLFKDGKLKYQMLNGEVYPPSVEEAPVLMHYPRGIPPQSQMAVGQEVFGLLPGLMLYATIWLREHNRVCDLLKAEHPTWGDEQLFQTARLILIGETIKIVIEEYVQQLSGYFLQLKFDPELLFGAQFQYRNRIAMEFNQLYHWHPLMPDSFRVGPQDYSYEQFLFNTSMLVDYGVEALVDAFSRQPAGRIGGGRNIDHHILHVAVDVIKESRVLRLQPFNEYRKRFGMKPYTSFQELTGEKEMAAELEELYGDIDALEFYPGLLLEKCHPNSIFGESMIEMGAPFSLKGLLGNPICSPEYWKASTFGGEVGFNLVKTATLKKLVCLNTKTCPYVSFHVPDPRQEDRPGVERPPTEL

Prostaglandin E synthase [3] = biological target: T3, Prostaglandin E synthase (Homo sapiens, UniProt O14684); assay: Inhibition of mPGES-1 in human A549 cells assessed as PGE2[…] formation preincubated for 60 mins prior to IL-beta stimulation measured after 24 hrs by EIA; format: cell-based
T3 sequence (O14684 whole entry): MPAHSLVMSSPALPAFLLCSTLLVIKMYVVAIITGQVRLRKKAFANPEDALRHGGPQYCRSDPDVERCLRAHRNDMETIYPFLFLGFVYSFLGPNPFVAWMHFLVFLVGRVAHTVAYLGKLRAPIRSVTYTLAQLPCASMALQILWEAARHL

Prostaglandin E synthase [4] = biological target: T3, Prostaglandin E synthase; assay: Inhibition of human mPGES-1 expressed in CHO-K1 cells using PGH2 as substrate assessed as PGE2 formation preincubated for 20 mins followed by addition of substrate measured after 60 secs by HTRF assay; format: cell-based

IC50 [1]	IC50 [2]	IC50 (Prostaglandin E synthase [3])	IC50 (Prostaglandin E synthase [4])	SMILES
2.5 nM	8000 nM	–	–	CC(C)c1ccc2c(c1)c(SC(C)(C)C)c(CC(C)(C)C(=O)O)n2Cc1ccc(Cl)cc1
–	–	1.2 nM	0.1 nM	Cn1c(Nc2cc(CNC(=O)C3(C(F)(F)F)CC3)ccc2Cl)nc2cc(C(=O)NCC3CC3)c(OCC(F)F)cc21
